Measurements reported in publication PMC3106998, “The novel sigma-2 receptor ligand SW43 stabilizes pancreas cancer progression in combination with gemcitabine” (2010).

Molecular target: T1, sigma-2 receptor (Mus musculus, UniProt Q8VD00)
T1 construct: gene Tmem97; Panc02 tumor membrane homogenates
T1 sequence (Q8VD00 1-176): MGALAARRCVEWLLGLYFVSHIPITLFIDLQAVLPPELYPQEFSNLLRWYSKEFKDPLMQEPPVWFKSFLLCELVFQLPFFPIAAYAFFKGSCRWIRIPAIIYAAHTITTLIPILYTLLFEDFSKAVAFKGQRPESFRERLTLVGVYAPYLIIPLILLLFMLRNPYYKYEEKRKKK
Assay: radioligand competition with […]-ISO-2 in membrane homogenates
Assay type: binding

## COc1ccc(C)cc1NC(=O)OC1CC2CCCC(C1)N2CCCCCCCCCCN (centres unmarked) [SW43]
  IC50: 18 ± 2.1 nM

## COc1ccc(C)cc1NC(=O)OC1CC2CCCC(C1)N2CCCCCCN (centres unmarked) [SV119]
  IC50: 7.8 ± 1.7 nM
